Among the data in patent US11130769B2 (Prelude Therapeutics Incorporated, priority 2018, dated 2021) are Ki and IC50 values, retold here.

One assay deals with MCL-1 (Homo sapiens (Human), UniProt Q07820). Nature of the assay: Cell free Mcl-1:Bim affinity assay (fluorescence polarization competition). The assay is classed as binding. Particulars: 15 nM MCL-1, 5 nM FITC-Bim, 1 hour at room temperature, read-out: BIM_Ki. Put shortly:
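Compounds competed with FITC-labelled Bim peptide (5 nM) for MCL-1 (15 nM) in HEPES/NaCl buffer with 1% DMSO, 1 h at room temperature. Fluorescence polarization (535 nm emission) gave % inhibition versus DMSO and positive controls; IC50 from 10-point curves, converted to Ki by the Nikolovska-Coleska equation.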

The test system of another assay is H929 cells. As to the kind of experiment: Cell viability assay (H929 10 FBS). The assay is classed as cell-based. Particulars: Homo sapiens, NCI-H929, 24 hours, read-out: H929_10FBS IC50. Put shortly: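 H929 cells, 4000/well, in RPMI 1640 with 10% FBS, sodium pyruvate, HEPES and glucose were exposed to compound 24 h at 37 °C. Viability read as luminescence after 30-60 min at RT with CellTiter-Glo or ATPlite 1 Step.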

Each structure is given as a SMILES string. Where two headings read alike, the source gives them in different places. Bounds are passed on as bounds.

Chain of MCL-1 (Q07820 whole entry): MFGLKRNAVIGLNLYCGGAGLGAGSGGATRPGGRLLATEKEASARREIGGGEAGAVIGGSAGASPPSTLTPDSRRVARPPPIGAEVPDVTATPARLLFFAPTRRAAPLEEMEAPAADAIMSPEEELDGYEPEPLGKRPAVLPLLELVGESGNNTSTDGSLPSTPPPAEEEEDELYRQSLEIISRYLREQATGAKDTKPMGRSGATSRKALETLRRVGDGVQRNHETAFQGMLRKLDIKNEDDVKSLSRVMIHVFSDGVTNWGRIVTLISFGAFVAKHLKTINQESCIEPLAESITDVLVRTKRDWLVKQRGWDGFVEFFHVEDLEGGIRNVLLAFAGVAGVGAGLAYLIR

Turning to `COC[C@H]1CCCN1C(=O)O[C@H]1/C=C/COC(C)(C)C(=O)NS(=O)(=O)c2ccc3c(c2)N(C[C@@H]2CC[C@H]21)C[C@@]1(CCCc2cc(Cl)ccc21)CO3` [Example 161, [(3R,6R,7S,8E,22S)-6′-Chloro-12,12-dimethyl-13,15,15-trioxo-spiro[11,20-dioxa-15-thia-1,14-diazatetracyclo[14.7.2.03,6.019,24]pentacosa-8,16,18,24-tetraene-22,1′-tetralin]-7-yl] (2R)-2-(methoxymethyl)pyrrolidine-1-carboxylate], the Ki at MCL-1 (class symbols) is less than 0.001 µM. Also, in the assay on H929 cells, the half-maximal inhibitory concentration (IC50) – broadly, the midpoint of a concentration-inhibition curve – was less than 1 µM.
For `CC1(C)OC/C=C/[C@H](OC(=O)N2CCC(O)CC2)[C@@H]2CC[C@H]2CN2C[C@@]3(CCCc4cc(Cl)ccc43)COc3ccc(cc32)S(=O)(=O)NC1=O` [Example 190, [(3R,6R,7S,8E,22S)-6′-Chloro-12,12-dimethyl-13,15,15-trioxo-spiro[11,20-dioxa-15-thia-1,14-diazatetracyclo[14.7.2.03,6.019,24]pentacosa-8,16,18,24-tetraene-22,1′-tetralin]-7-yl] 4-hydroxypiperidine-1-carboxylate], in that order: less than 0.001 µM and less than 0.5 µM.
In the same order, the values of `CO[C@@H]1/C=C/C[C@H](C)[C@@H](CO)C(=O)NS(=O)(=O)c2ccc3c(c2)N(C[C@@H]2CC[C@H]21)C[C@@]1(CCCc2cc(Cl)ccc21)CO3` [Example 94, (3R,6R,7R,8E,11S,12S,22S)-6′-Chloro-12-(hydroxymethyl)-7-methoxy-11-methyl-15,15-dioxo-spiro[20-oxa-15-thia-1,14-diazatetracyclo[14.7.2.03,6.019,24]pentacosa-8,16,18,24-tetraene-22,1′-tetralin]-13-one] are less than 0.001 µM and greater than 1 µM.
For `CN1CCN(C(=O)O[C@H]2/C=C/COC(C)(C)C(=O)NS(=O)(=O)c3ccc4c(c3)N(C[C@@H]3CC[C@H]32)C[C@@]2(CCCc3cc(Cl)ccc32)CO4)CC1` [Example 189, [(3R,6R,7S,8E,22S)-6′-Chloro-12,12-dimethyl-13,15,15-trioxo-spiro[11,20-dioxa-15-thia-1,14-diazatetracyclo[14.7.2.03,6.019,24]pentacosa-8,16,18,24-tetraene-22,1′-tetralin]-7-yl] 4-methylpiperazine-1-carboxylate], in that order: less than 0.001 µM and less than 0.5 µM.
For the molecule `CO[C@@H]1/C=C/CN(C)[C@@H](C2CC2)C(=O)NS(=O)(=O)c2ccc3c(c2)N(C[C@@H]2CC[C@H]21)C[C@@]1(CCCc2cc(Cl)ccc21)CO3` [Example 127, (3R,6R,7R,8E,12S,22S)-6′-Chloro-12-cyclopropyl-7-methoxy-11-methyl-15,15-dioxo-spiro[20-oxa-15-thia-1,11,14-triazatetracyclo[14.7.2.0˜3,6.0˜19,24]pentacosa-8,16,18,24-tetraene-22,1′-tetralin]-13-one], the Ki at MCL-1 (class symbols) was 0.001 to 0.1 µM. The concentration for half-maximal inhibition (IC50) in the assay on H929 cells was less than 1 µM.
In the same order, the values of `C[C@@H]1C(=O)NS(=O)(=O)c2ccc3c(c2)N(C[C@@H]2CC[C@H]2[C@@H](OC(=O)N(C)C)/C=C/CN1C)C[C@@]1(CCCc2cc(Cl)ccc21)CO3` [Example 145, [(3R,6R,7S,8E,12R,22S)-6′-Chloro-11,12-dimethyl-13,15,15-trioxo-spiro[20-oxa-15-thia-1,11,14-triazatetracyclo[14.7.2.03,6.019,24]pentacosa-8,16,18,24-tetraene-22,1′-tetralin]-7-yl] N,N-dimethylcarbamate] are less than 0.001 µM and less than 0.5 µM.
For `COC[C@H]1C(=O)NS(=O)(=O)c2ccc3c(c2)N(C[C@@H]2CC[C@H]2[C@H](O)/C=C/C[C@@H]1C)C[C@@]1(CCCc2cc(Cl)ccc21)CO3` [Example 88, (3R,6R,7R,8E,11S,12S,22S)-6′-Chloro-7-hydroxy-12-(methoxymethyl)-11-methyl-15,15-dioxo-spiro[20-oxa-15-thia-1,14-diazatetracyclo[14.7.2.03,6.019,24]pentacosa-8,16,18,24-tetraene-22,1′-tetralin]-13-one], in that order: less than 0.001 µM and less than 1 µM.
Take `CO[C@@H]1/C=C/CNC2(CCC2)C(=O)NS(=O)(=O)c2ccc3c(c2)N(C[C@@H]2CC[C@H]21)C[C@@]1(CCCc2cc(Cl)ccc21)CO3` [Example 116, (3R,6R,7R,8E,22S)-6′-Chloro-7-methoxy-12,12-(1,3-propylene)-15,15-dioxo-spiro[[20]oxa-15-thia-1,11,14-triazatetracyclo[14.7.2.03,6.019,24]pentacosa[8,16(25),17,19(24)]tetraene-22,1′-tetralin]-13-one]: the Ki at MCL-1 (class symbols) is 0.001 to 0.1 µM. Also, in the assay with H929 cells, the IC50 is less than 1 µM.
For `CN(C)C(=O)O[C@@H]1/C=C/CNC(C)(C)C(=O)NS(=O)(=O)c2ccc3c(c2)N(C[C@@H]2CC[C@H]21)C[C@@]1(CCCc2cc(Cl)ccc21)CO3` [Example 198, [(3R,6R,7R,8E,22S)-6′-Chloro-12,12-dimethyl-13,15,15-trioxo-spiro[20-oxa-15-thia-1,11,14-triazatetracyclo[14.7.2.0˜3,6.0˜19,24]pentacosa-8,16,18,24-tetraene-22,1′-tetralin]-7-yl] N,N-dimethylcarbamate], in that order: less than 0.001 µM and less than 0.5 µM.
Take `Cc1ccc(CC(=O)NS(=O)(=O)c2ccc3c(c2)N(CC2CCC2)C[C@@]2(CCCc4cc(Cl)ccc42)CO3)cn1` [Example 17, 2-(6-Methyl-3-pyridyl)-N-[(3S)-6′-chloro-5-(cyclobutylmethyl)spiro[2,4-dihydro-1,5-benzoxazepine-3,1′-tetralin]-7-yl]sulfonyl-acetamide]: the Ki on MCL-1 (numeric values) is 0.0074 µM. In the assay on H929 cells, the IC50 was greater than 1 µM.
As for `CN[C@@H]1CCN(C(=O)O[C@H]2/C=C/COC(C)(C)C(=O)NS(=O)(=O)c3ccc4c(c3)N(C[C@@H]3CC[C@H]32)C[C@@]2(CCCc3cc(Cl)ccc32)CO4)C1` [Example 164, [(3R,6R,7S,8E,22S)-6′-Chloro-12,12-dimethyl-13,15,15-trioxo-spiro[11,20-dioxa-15-thia-1,14-diazatetracyclo[14.7.2.03,6.019,24]pentacosa-8,16,18,24-tetraene-22,1′-tetralin]-7-yl] (3R)-3-(methylamino)pyrrolidine-1-carboxylate], at MCL-1 (class symbols), the Ki was less than 0.001 µM. Besides, in the assay on H929 cells, the IC50 is less than 0.5 µM.
Turning to `CCN(CC)CCO[C@H]1/C=C/COC(C)(C)C(=O)NS(=O)(=O)c2ccc3c(c2)N(C[C@@H]2CC[C@H]21)C[C@@]1(CCCc2cc(Cl)ccc21)CO3` [Example 268, (3R,6R,7S,8E,22S)-6′-Chloro-7-[2-(diethylamino)ethoxy]-12,12-dimethyl-15,15-dioxo-spiro[11,20-dioxa-15-thia-1,14-diazatetracyclo[14.7.2.03,6.019,24]pentacosa-8,16,18,24-tetraene-22,1′-tetralin]-13-one], at MCL-1 (class symbols), the Ki is less than 0.001 µM. In addition, the half-inhibitory concentration (IC50) in the assay on H929 cells was less than 0.5 µM.
Consider `CC(=O)NS(=O)(=O)c1ccc2c(c1)N(Cc1cnn(C)c1)CC1(CCCc3cc(Cl)ccc31)CO2` (centres unmarked) [Example 9, N-[6′-Chloro-5-[(1-methylpyrazol-4-yl)methyl]spiro[2,4-dihydro-1,5-benzoxazepine-3,1′-tetralin]-7-yl]sulfonylacetamide], for which the Ki on MCL-1 (numeric values) was found to be 1.64 µM. The IC50 in the assay with H929 cells is greater than 1 µM.
